Data published in patent US9636418B2 (priority 2013, dated 2017).
“And” between values parts separate entries of the source, which are not always exact repeats. Identical values can stand only once. Like-named read-outs stand apart in the source and are kept apart here.

Assays:
Test in all cases: cell-based
hNav1.7 [1] = biological target: T1, hNav1.7 (Homo sapiens, UniProt Q15858); details: IonWorks Quattro; read-out: IC50 Nav1.7
hNav1.5 [2] = biological target: T2, hNav1.5 (Homo sapiens, UniProt Q14524); details: IonWorks Quattro; read-out: IC50 Nav1.5
hNav1.4 [3] = biological target: T3, hNav1.4 (Homo sapiens, UniProt P35499); details: for IC50: IonWorks Quattro, read-out: IC50 Nav1.4; for Nav1.4/Nav1.7: ratio of IonWorks Quattro IC50 values
hNav1.3 = hNav1.3 (Homo sapiens, UniProt Q9NY46); details: IonWorks Quattro; read-out: IC50 Nav1.3
hNav1.7 [4] = biological target: T1, hNav1.7; format: cell-based; details: PatchXpress; * = at high concentrations compound would wash off slowly or not at all; read-out: PX hNav1.7 Tonic IC50
hNav1.4 [5] = biological target: T3, hNav1.4; details: for IC50: PatchXpress, * = at high concentrations compound would wash off slowly or not at all, read-out: PX hNav1.4 Tonic IC50
hNav1.5 [6] = biological target: T2, hNav1.5; details: for IC50: PatchXpress, * = at high concentrations compound would wash off slowly or not at all, read-out: PX hNav1.5 Tonic IC50

T2 sequence (Q14524 whole entry): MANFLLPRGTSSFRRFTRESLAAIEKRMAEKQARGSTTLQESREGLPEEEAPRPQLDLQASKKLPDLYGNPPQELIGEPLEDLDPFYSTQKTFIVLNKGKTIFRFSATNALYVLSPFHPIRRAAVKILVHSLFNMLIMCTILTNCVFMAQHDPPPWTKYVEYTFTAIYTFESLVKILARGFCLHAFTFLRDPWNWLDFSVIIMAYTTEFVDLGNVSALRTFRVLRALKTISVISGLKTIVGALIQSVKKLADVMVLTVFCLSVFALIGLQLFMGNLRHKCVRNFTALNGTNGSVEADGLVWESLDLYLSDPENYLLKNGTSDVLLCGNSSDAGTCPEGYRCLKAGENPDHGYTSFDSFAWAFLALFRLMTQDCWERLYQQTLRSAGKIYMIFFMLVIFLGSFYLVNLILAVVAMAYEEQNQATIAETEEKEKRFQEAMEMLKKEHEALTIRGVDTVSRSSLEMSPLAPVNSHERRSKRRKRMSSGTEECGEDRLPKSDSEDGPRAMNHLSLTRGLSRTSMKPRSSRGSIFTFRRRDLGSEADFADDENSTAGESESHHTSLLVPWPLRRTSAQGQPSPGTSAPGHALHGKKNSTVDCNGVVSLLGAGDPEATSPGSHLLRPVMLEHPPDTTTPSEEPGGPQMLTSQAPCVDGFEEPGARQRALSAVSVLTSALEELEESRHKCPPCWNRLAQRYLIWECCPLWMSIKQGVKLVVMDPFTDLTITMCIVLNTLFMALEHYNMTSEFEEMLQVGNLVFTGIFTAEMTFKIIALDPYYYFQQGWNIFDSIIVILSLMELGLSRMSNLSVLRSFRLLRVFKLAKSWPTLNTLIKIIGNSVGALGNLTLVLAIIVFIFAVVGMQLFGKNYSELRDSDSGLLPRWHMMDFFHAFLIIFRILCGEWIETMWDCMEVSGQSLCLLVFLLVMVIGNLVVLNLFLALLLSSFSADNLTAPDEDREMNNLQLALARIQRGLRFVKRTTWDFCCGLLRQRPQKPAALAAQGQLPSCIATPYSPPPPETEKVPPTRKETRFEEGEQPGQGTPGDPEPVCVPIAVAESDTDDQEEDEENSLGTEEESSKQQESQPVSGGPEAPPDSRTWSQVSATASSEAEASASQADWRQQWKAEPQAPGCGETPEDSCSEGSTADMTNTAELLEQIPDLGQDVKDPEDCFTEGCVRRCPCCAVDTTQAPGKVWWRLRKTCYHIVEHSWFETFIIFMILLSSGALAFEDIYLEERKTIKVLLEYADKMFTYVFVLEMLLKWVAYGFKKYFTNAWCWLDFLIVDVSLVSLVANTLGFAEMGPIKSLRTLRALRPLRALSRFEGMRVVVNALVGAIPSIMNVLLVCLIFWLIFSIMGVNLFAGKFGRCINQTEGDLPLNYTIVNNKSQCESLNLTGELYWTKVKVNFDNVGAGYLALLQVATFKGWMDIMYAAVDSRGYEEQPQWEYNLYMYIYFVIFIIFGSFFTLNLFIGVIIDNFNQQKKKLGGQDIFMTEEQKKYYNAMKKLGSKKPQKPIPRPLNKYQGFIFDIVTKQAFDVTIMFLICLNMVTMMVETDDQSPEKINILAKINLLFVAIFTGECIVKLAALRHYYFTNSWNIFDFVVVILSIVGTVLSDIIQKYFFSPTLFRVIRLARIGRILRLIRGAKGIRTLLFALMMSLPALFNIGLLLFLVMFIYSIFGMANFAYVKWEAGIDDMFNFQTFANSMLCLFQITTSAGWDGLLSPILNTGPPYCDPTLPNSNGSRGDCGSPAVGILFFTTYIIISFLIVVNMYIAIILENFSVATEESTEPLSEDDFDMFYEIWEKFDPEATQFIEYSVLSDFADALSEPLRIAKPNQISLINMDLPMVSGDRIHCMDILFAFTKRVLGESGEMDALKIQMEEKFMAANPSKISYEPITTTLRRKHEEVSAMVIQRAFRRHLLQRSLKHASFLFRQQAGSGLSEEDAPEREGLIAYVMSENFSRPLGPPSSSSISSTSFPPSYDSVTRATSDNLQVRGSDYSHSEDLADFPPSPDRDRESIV
Chain of hNav1.3 (Q9NY46 whole entry): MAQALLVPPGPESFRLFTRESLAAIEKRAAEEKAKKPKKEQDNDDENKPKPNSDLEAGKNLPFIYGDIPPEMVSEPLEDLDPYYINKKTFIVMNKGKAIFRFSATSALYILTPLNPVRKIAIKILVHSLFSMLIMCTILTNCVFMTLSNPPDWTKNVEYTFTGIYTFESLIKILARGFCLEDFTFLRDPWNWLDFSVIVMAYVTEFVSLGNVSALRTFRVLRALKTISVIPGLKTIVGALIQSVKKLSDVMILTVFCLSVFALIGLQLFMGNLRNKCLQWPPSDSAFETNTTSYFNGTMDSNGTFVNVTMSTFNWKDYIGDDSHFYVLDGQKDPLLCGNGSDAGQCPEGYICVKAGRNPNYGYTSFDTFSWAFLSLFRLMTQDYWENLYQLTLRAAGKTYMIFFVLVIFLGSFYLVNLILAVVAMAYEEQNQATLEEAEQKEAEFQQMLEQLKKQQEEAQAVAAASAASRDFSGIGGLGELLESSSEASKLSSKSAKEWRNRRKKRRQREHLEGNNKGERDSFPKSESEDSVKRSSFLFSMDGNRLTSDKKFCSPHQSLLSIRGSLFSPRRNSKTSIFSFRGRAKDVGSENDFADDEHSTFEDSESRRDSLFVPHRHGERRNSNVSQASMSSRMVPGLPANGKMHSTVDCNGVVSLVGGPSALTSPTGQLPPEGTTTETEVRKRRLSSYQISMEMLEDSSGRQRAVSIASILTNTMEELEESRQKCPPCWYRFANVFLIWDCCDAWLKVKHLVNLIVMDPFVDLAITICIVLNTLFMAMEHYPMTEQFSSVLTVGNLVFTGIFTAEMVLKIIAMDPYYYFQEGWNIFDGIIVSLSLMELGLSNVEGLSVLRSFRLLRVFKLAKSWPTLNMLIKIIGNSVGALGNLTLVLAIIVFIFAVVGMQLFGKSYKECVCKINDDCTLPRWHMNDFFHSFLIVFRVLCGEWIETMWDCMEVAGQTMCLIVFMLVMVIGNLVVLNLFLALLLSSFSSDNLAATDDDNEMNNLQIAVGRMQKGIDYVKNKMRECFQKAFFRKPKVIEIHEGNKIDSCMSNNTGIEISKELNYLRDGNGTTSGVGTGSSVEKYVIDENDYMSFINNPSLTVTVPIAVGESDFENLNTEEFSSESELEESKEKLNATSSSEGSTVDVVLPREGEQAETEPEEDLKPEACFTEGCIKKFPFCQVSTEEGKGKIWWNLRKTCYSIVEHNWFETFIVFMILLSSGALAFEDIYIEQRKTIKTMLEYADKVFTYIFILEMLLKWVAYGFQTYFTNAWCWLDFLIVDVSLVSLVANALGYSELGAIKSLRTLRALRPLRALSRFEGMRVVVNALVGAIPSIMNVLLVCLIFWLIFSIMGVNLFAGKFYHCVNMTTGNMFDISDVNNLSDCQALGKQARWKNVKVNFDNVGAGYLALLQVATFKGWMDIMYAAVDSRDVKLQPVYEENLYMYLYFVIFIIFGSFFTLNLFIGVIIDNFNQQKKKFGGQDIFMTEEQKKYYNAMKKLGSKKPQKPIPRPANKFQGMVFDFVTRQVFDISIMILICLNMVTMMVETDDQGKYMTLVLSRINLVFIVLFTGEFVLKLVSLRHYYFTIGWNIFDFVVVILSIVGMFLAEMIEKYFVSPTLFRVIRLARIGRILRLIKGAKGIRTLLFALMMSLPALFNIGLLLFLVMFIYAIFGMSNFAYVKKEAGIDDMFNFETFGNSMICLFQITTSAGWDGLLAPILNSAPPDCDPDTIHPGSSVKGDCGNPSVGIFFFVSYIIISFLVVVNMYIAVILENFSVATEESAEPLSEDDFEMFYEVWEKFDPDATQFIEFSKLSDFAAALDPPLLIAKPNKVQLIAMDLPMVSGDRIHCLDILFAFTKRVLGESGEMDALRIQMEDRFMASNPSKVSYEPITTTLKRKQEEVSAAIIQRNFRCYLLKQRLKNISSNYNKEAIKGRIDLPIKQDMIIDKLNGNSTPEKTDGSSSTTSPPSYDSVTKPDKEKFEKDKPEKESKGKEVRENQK

| SMILES | IC50 (hNav1.7 [1]) | IC50 (hNav1.5 [2]) | IC50 (hNav1.4 [3]) | Nav1.4/Nav1.7 (hNav1.4 [3]) | IC50 (hNav1.3) | IC50 (hNav1.7 [4]) [µM] | IC50 (hNav1.4 [5]) [µM] | IC50 (hNav1.5 [6]) [µM] | Nav1.4/Nav1.7 (hNav1.4 [5]; ratio of PX IC50 values) | Nav1.5/Nav1.7 (hNav1.5 [6]; ratio of PX IC50 values) |
| --- | --- | --- | --- | --- | --- | --- | --- | --- | --- | --- |
| CCC[C@H](NC(=O)[C@H](CCCCN)NC(=O)[C@H](CCCNC(=N)N)NC(=O)[C@@H]1CSSC[C@@H]2NC(=O)[C@H](C)NC(=O)[C@H](CCCNC(=N)N)NC(=O)[C@H](CCCCN)NC(=O)[C@H](CO)NC(=O)[C@H](CC(=O)O)NC(=O)[C@@H]3CSSC[C@H](NC(=O)[C@H](CCC(=O)O)NC(=O)[C@H](CC(C)C)NC(=O)CNC(=O)[C@H](CCC(=O)O)NC(=O)[C@H](CSSC[C@H](NC(=O)[C@@H](N)Cc4ccc(O)cc4)C(=O)N[C@@H](CCC(N)=O)C(=O)N[C@@H](CCCCN)C(=O)N[C@@H](Cc4c[nH]c5ccccc45)C(=O)N[C@@H](CCSC)C(=O)N[C@@H](Cc4c[nH]c5ccccc45)C(=O)N[C@@H]([C@@H](C)O)C(=O)N3)NC2=O)C(=O)N[C@@H](CCCCN)C(=O)N[C@@H](CC(C)C)C(=O)N[C@@H](Cc2c[nH]c3ccccc23)C(=O)N1)C(=O)N[C@H](C(N)=O)[C@@H](C)CC [compound 136] | 0.08 µM and 0.15 µM | 8.9 µM and 15.8 µM | > 5 µM | 66 and 34 | > 5 µM | 0.0128 | 5.19 | 7.82 | – | – |
| CC[C@H](C)[C@H](NC(=O)[C@H](Cc1ccc(O)cc1)NC(=O)[C@H](CCCCN)NC(=O)[C@H](CCCNC(=N)N)NC(=O)[C@@H]1CSSC[C@@H]2NC(=O)[C@H](C)NC(=O)[C@H](CCCNC(=N)N)NC(=O)[C@H](CCCCN)NC(=O)[C@H](CO)NC(=O)[C@H](CC(=O)O)NC(=O)[C@@H]3CSSC[C@H](NC(=O)[C@H](CCC(=O)O)NC(=O)[C@H](CC(C)C)NC(=O)CNC(=O)[C@H](CCC(=O)O)NC(=O)[C@H](CSSC[C@H](NC(=O)[C@@H](N)Cc4ccc(O)cc4)C(=O)N[C@@H](CCC(N)=O)C(=O)N[C@@H](CCCCN)C(=O)N[C@@H](Cc4c[nH]c5ccccc45)C(=O)N[C@@H](CCSC)C(=O)N[C@@H](Cc4c[nH]c5ccccc45)C(=O)N[C@@H]([C@@H](C)O)C(=O)N3)NC2=O)C(=O)N[C@@H](CCCCN)C(=O)N[C@@H](CC(C)C)C(=O)N[C@@H](Cc2c[nH]c3ccccc23)C(=O)N1)C(N)=O [compound 137] | 0.09 µM | 8 µM | > 3.5 µM | 41 | 2.01 µM | 0.0009 | 1.27 | 11.4 | – | – |
| CC[C@H](C)[C@H](NC(=O)[C@H](Cc1ccc(O)cc1)NC(=O)[C@H](CCCCN)NC(=O)[C@H](CCCNC(=N)N)NC(=O)[C@@H]1CSSC[C@@H]2NC(=O)[C@H](C)NC(=O)[C@H](CCCNC(=N)N)NC(=O)[C@H](CCCCN)NC(=O)[C@H](CO)NC(=O)[C@H](CC(=O)O)NC(=O)[C@@H]3CSSC[C@H](NC(=O)[C@H](CCC(=O)O)NC(=O)[C@H](CC(C)C)NC(=O)CNC(=O)[C@H](CCC(=O)O)NC(=O)[C@H](CSSC[C@H](NC(=O)[C@@H](N)Cc4ccc(O)cc4)C(=O)N[C@@H](CCC(N)=O)C(=O)N[C@@H](CCCCN)C(=O)N[C@@H](Cc4ccc(I)cc4)C(=O)N[C@@H](CCSC)C(=O)N[C@@H](Cc4c[nH]c5ccccc45)C(=O)N[C@@H]([C@@H](C)O)C(=O)N3)NC2=O)C(=O)N[C@@H](CCCCN)C(=O)N[C@@H](CC(C)C)C(=O)N[C@@H](Cc2c[nH]c3ccccc23)C(=O)N1)C(N)=O [compound 192] | 0.11 µM | > 5 µM | 3.4 µM | 30 | 1.3 µM | 0.0022 | 0.172 | > 1 | 78 | – |
| CC[C@H](C)[C@H](NC(=O)[C@H](Cc1ccc(O)cc1)NC(=O)[C@H](CCCCN)NC(=O)[C@H](CCCNC(=N)N)NC(=O)[C@@H]1CSSC[C@@H]2NC(=O)[C@H](C)NC(=O)[C@H](CCCNC(=N)N)NC(=O)[C@H](CCCCN)NC(=O)[C@H](CO)NC(=O)[C@H](CC(=O)O)NC(=O)[C@@H]3CSSC[C@H](NC(=O)[C@H](CCC(=O)O)NC(=O)[C@H](CC(C)C)NC(=O)CNC(=O)[C@H](CCC(=O)O)NC(=O)[C@H](CSSC[C@H](NC(=O)[C@@H](N)Cc4ccc(O)cc4)C(=O)N[C@@H](CCC(N)=O)C(=O)N[C@@H](CCCCN)C(=O)N[C@@H](Cc4ccccc4)C(=O)N[C@@H](CCSC)C(=O)N[C@@H](Cc4c[nH]c5ccccc45)C(=O)N[C@@H]([C@@H](C)O)C(=O)N3)NC2=O)C(=O)N[C@@H](CCCCN)C(=O)N[C@@H](CC(C)C)C(=O)N[C@@H](Cc2c[nH]c3ccccc23)C(=O)N1)C(N)=O [compound 193] | 0.16 µM and 0.23 µM | > 5 µM | > 5 µM | – | > 5 µM | 0.0046 | 1 | > 1 | – | – |
| CC[C@H](C)[C@H](NC(=O)[C@H](Cc1ccc(O)cc1)NC(=O)[C@H](CCCCN)NC(=O)[C@H](CCCNC(=N)N)NC(=O)[C@@H]1CSSC[C@@H]2NC(=O)[C@H](C)NC(=O)[C@H](CCCNC(=N)N)NC(=O)[C@H](CCCCN)NC(=O)[C@H](CO)NC(=O)[C@H](CC(=O)O)NC(=O)[C@@H]3CSSC[C@H](NC(=O)[C@H](CCC(=O)O)NC(=O)[C@H](CC(C)C)NC(=O)CNC(=O)[C@H](CCC(=O)O)NC(=O)[C@H](CSSC[C@H](NC(=O)[C@@H](N)Cc4ccc(O)cc4)C(=O)N[C@@H](CCC(N)=O)C(=O)N[C@@H](CCCCN)C(=O)N[C@@H](Cc4c[nH]c5ccccc45)C(=O)N[C@@H](CCSC)C(=O)N[C@@H](Cc4c[nH]c5ccccc45)C(=O)N[C@@H]([C@@H](C)O)C(=O)N3)NC2=O)C(=O)N[C@@H](CCCCN)C(=O)N[C@@H](CC(C)C)C(=O)N[C@@H](Cc2cccc3ccccc23)C(=O)N1)C(N)=O [compound 218] | 0.3 µM | > 7 µM | > 7 µM | – | > 7 µM | 0.012 | 5.21 | 10 | – | – |
| CSCC[C@@H]1NC(=O)[C@H](Cc2c[nH]c3ccccc23)NC(=O)[C@H](CCCCN)NC(=O)[C@H](CCC(N)=O)NC(=O)[C@@H](NC(=O)[C@@H](N)Cc2ccc(O)cc2)CSSC[C@@H]2NC(=O)[C@@H]3CSSC[C@@H](C(=O)N[C@@H](CCCNC(=N)N)C(=O)N[C@@H](CCCCN)C(=O)N[C@@H](Cc4ccc(O)cc4)C(=O)N[C@@H](Cc4cccc5ccccc45)C(N)=O)NC(=O)[C@H](Cc4c[nH]c5ccccc45)NC(=O)[C@H](CC(C)C)NC(=O)[C@H](CCCCN)NC(=O)[C@H](CSSC[C@H](NC(=O)[C@H]([C@@H](C)O)NC(=O)[C@H](Cc4c[nH]c5ccccc45)NC1=O)C(=O)N[C@@H](CC(=O)O)C(=O)N[C@@H](CO)C(=O)N[C@@H](CCCCN)C(=O)N[C@@H](CCCNC(=N)N)C(=O)N[C@@H](C)C(=O)N3)NC(=O)[C@H](CCC(=O)O)NC(=O)[C@H](CC(C)C)NC(=O)CNC(=O)[C@H](CCC(=O)O)NC2=O [compound 232] | 0.05 µM | 4.6 µM | 4.6 µM | 91 | 2.1 µM | 0.0045 | 1.67 | 2.16 | – | 480 |
| CSCC[C@@H]1NC(=O)[C@H](Cc2c[nH]c3ccccc23)NC(=O)[C@H](CCCCN)NC(=O)[C@H](CCC(N)=O)NC(=O)[C@@H](NC(=O)[C@@H](N)Cc2ccc(O)cc2)CSSC[C@@H]2NC(=O)[C@@H]3CSSC[C@@H](C(=O)N[C@@H](CCCNC(=N)N)C(=O)N[C@@H](CCCCN)C(=O)N[C@@H](Cc4ccc(O)cc4)C(=O)N[C@@H](Cc4ccc5ccccc5c4)C(N)=O)NC(=O)[C@H](Cc4c[nH]c5ccccc45)NC(=O)[C@H](CC(C)C)NC(=O)[C@H](CCCCN)NC(=O)[C@H](CSSC[C@H](NC(=O)[C@H]([C@@H](C)O)NC(=O)[C@H](Cc4c[nH]c5ccccc45)NC1=O)C(=O)N[C@@H](CC(=O)O)C(=O)N[C@@H](CO)C(=O)N[C@@H](CCCCN)C(=O)N[C@@H](CCCNC(=N)N)C(=O)N[C@@H](C)C(=O)N3)NC(=O)[C@H](CCC(=O)O)NC(=O)[C@H](CC(C)C)NC(=O)CNC(=O)[C@H](CCC(=O)O)NC2=O [compound 233] | 0.044 µM | > 5 µM | > 5 µM | – | 2.2 µM | 0.0046 | 1.22 | 1.99 | – | – |
| CSCC[C@@H]1NC(=O)[C@H](Cc2c[nH]c3ccccc23)NC(=O)[C@H](CCCCN)NC(=O)[C@H](CCC(N)=O)NC(=O)[C@@H](NC(=O)[C@@H](N)Cc2ccc(O)cc2)CSSC[C@@H]2NC(=O)[C@@H]3CSSC[C@@H](C(=O)N[C@@H](CCCNC(=N)N)C(=O)N[C@@H](CCCCN)C(=O)N[C@@H](Cc4ccc(O)cc4)C(=O)N[C@@H](CC(C)C)C(N)=O)NC(=O)[C@H](Cc4c[nH]c5ccccc45)NC(=O)[C@H](CC(C)C)NC(=O)[C@H](CCCCN)NC(=O)[C@H](CSSC[C@H](NC(=O)[C@H]([C@@H](C)O)NC(=O)[C@H](Cc4c[nH]c5ccccc45)NC1=O)C(=O)N[C@@H](CC(=O)O)C(=O)N[C@@H](CO)C(=O)N[C@@H](CCCCN)C(=O)N[C@@H](CCCNC(=N)N)C(=O)N[C@@H](C)C(=O)N3)NC(=O)[C@H](CCC(=O)O)NC(=O)[C@H](CC(C)C)NC(=O)CNC(=O)[C@H](CCC(=O)O)NC2=O [compound 238] | 0.084 µM and 0.23 µM | > 5 µM | 4.5 µM and > 5 µM | – | 3 µM and > 5 µM | 0.0026 | 0.626 | 7.33 | – | – |
